Reference: PubChem BioAssay AID220 (DTP/NCI, 2004)
Where “and” joins values, the source holds several entries; their conditions need not be identical. Equal values may be shown once. Inconclusive results are not listed.

Test system: CD8F1 mice, subcutaneous mammary adenocarcinoma, T/C%
Experiment: NCI In Vivo Anticancer Drug Screen. Data for tumor model Mammary Adenocarcinoma CD8F1 (subcutaneous) in CD8F1
Details: higher = larger tumour
Method in brief: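 Transplantable tumors were established in mice, animals were dosed with compound or vehicle, and survival or tumor size was then measured in both groups. The treated result was divided by the control result.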

[1] = endpoint: median tumor weight (est.), dose: 12.5 mg/kg/injection, schedule: Q07DX005 (ip), vehicle: Klucel (hydroxypropylcellulose) (HPC)
[2] = endpoint: median tumor weight (est.), dose: 25.0 mg/kg/injection, schedule: Q07DX005 (ip), vehicle: Klucel (hydroxypropylcellulose) (HPC)
[3] = endpoint: median tumor weight (est.), dose: 50.0 mg/kg/injection, schedule: Q07DX005 (ip), vehicle: Klucel (hydroxypropylcellulose) (HPC)
[4] = endpoint: median tumor weight change, dose: 250.0 mg/kg/injection, schedule: Q01DX001 (ip), vehicle: saline with Tween-80
[5] = endpoint: median tumor weight change, dose: 500.0 mg/kg/injection, schedule: Q01DX001 (ip), vehicle: saline with Tween-80
[6] = endpoint: median tumor weight change, dose: 1000.0 mg/kg/injection, schedule: Q01DX001 (ip), vehicle: saline with Tween-80
[7] = endpoint: median tumor weight (est.), dose: 12.5 mg/kg/injection, schedule: Q07DX005 (ip), vehicle: saline
[8] = endpoint: median tumor weight (est.), dose: 25.0 mg/kg/injection, schedule: Q07DX005 (ip), vehicle: saline
[9] = endpoint: median tumor weight (est.), dose: 50.0 mg/kg/injection, schedule: Q07DX005 (ip), vehicle: saline
[10] = endpoint: median tumor weight (est.), dose: 100.0 mg/kg/injection, schedule: Q07DX005 (ip), vehicle: saline
[11] = endpoint: median tumor weight (est.), dose: 12.5 mg/kg/injection, schedule: Q07DX005 (ip), vehicle: saline with Tween-80
[12] = endpoint: median tumor weight (est.), dose: 25.0 mg/kg/injection, schedule: Q07DX005 (ip), vehicle: saline with Tween-80
[13] = endpoint: median tumor weight (est.), dose: 100.0 mg/kg/injection, schedule: Q07DX005 (ip), vehicle: saline with Tween-80
[14] = endpoint: median tumor weight (est.), dose: 200.0 mg/kg/injection, schedule: Q07DX005 (ip), vehicle: saline with Tween-80

CC12C(=O)C=CCC1=CCC1C2CCC2(O)C(=O)OC3(C)C4CC5(C)C(COC16OC23C5C6=O)C(=O)O4 (stereo unspecified)
T/C (endpoint: median tumor weight change, dose: 250.0 mg/kg/injection, schedule: Q01DX001 (ip), vehicle: Klucel (hydroxypropylcellulose) (HPC)): 96 % of control
T/C (endpoint: median tumor weight change, dose: 500.0 mg/kg/injection, schedule: Q01DX001 (ip), vehicle: Klucel (hydroxypropylcellulose) (HPC)): 35 % of control

[I][Hg][CH2]C1COC([CH2][Hg][I])CO1 (stereo unspecified)
T/C (endpoint: median tumor weight (est.), dose: 6.25 mg/kg/injection, schedule: Q07DX005 (ip), vehicle: suspension in saline): 103 % of control
T/C (endpoint: median tumor weight (est.), dose: 12.5 mg/kg/injection, schedule: Q07DX005 (ip), vehicle: suspension in saline): 167 % of control
T/C (endpoint: median tumor weight (est.), dose: 25.0 mg/kg/injection, schedule: Q07DX005 (ip), vehicle: suspension in saline): 227 % of control
T/C (endpoint: median tumor weight (est.), dose: 50.0 mg/kg/injection, schedule: Q07DX005 (ip), vehicle: suspension in saline): 27 % of control

CC(CN1CC(=O)NC(=O)C1)N1CC(=O)NC(=O)C1 (stereo unspecified)
T/C [1]: 59 % of control
T/C [2]: 84 % of control
T/C [3]: 41 % of control
T/C (endpoint: median tumor weight (est.), dose: 200.0 mg/kg/injection, schedule: Q07DX005 (ip), vehicle: Klucel (hydroxypropylcellulose) (HPC)): 21 % of control and 29 % of control
T/C (endpoint: median tumor weight (est.), dose: 400.0 mg/kg/injection, schedule: Q07DX005 (ip), vehicle: Klucel (hydroxypropylcellulose) (HPC)): 5 % of control and 11 % of control

CCOC(=O)C(N)CSC(=O)NC (stereo unspecified)
T/C (endpoint: median tumor weight change, dose: 100.0 mg/kg/injection, schedule: Q01DX001 (ip), vehicle: saline): 115 % of control
T/C (endpoint: median tumor weight change, dose: 200.0 mg/kg/injection, schedule: Q01DX001 (ip), vehicle: saline): 81 % of control
T/C (endpoint: median tumor weight change, dose: 250.0 mg/kg/injection, schedule: Q01DX001 (ip), vehicle: saline): 91 % of control and 111 % of control
T/C (endpoint: median tumor weight change, dose: 400.0 mg/kg/injection, schedule: Q01DX001 (ip), vehicle: saline): 86 % of control
T/C (endpoint: median tumor weight change, dose: 500.0 mg/kg/injection, schedule: Q01DX001 (ip), vehicle: saline): 53 % of control and 74 % of control
T/C (endpoint: median tumor weight change, dose: 800.0 mg/kg/injection, schedule: Q01DX001 (ip), vehicle: saline): 96 % of control

Clc1ccc(C(c2ccccc2Cl)C(Cl)Cl)cc1 (stereo unspecified)
T/C [1]: 124 % of control
T/C [2]: 118 % of control
T/C [3]: 175 % of control
T/C (endpoint: median tumor weight (est.), dose: 100.0 mg/kg/injection, schedule: Q07DX005 (ip), vehicle: Klucel (hydroxypropylcellulose) (HPC)): 92 % of control

COC(=O)C[C@](O)(CCCC(C)(C)O)C(=O)O[C@@H]1C(OC)=C[C@]23CCCN2CCc2cc4c(cc2[C@H]13)OCO4
T/C (endpoint: median tumor weight (est.), dose: 0.25 mg/kg/injection, schedule: Q07DX005 (ip), vehicle: saline): 59 % of control
T/C (endpoint: median tumor weight (est.), dose: 0.5 mg/kg/injection, schedule: Q07DX005 (ip), vehicle: saline): 57 % of control and 60 % of control
T/C (endpoint: median tumor weight (est.), dose: 1.0 mg/kg/injection, schedule: Q07DX005 (ip), vehicle: saline): 61 % of control and 78 % of control
T/C (endpoint: median tumor weight (est.), dose: 2.0 mg/kg/injection, schedule: Q07DX005 (ip), vehicle: saline): 14 % of control and 21 % of control
T/C (endpoint: median tumor weight (est.), dose: 4.0 mg/kg/injection, schedule: Q07DX005 (ip), vehicle: saline): 7 % of control

NC(CSC(c1ccccc1)(c1ccccc1)c1ccccc1)C(=O)O (stereo unspecified)
T/C (endpoint: median tumor weight (est.), dose: 32.0 mg/kg/injection, schedule: Q07DX005 (ip), vehicle: Klucel (hydroxypropylcellulose) (HPC)): 101 % of control
T/C (endpoint: median tumor weight (est.), dose: 64.0 mg/kg/injection, schedule: Q07DX005 (ip), vehicle: Klucel (hydroxypropylcellulose) (HPC)): 71 % of control
T/C (endpoint: median tumor weight (est.), dose: 128.0 mg/kg/injection, schedule: Q07DX005 (ip), vehicle: Klucel (hydroxypropylcellulose) (HPC)): 74 % of control

O=C(Nc1cccc2c(OC(=O)C(Cl)Cl)c(N=Nc3ccc(S(=O)(=O)Nc4nccs4)cc3)cc(N=Nc3ccc(S(=O)(=O)Nc4nccs4)cc3)c12)C(Cl)Cl (tested in a mixture with another compound)
T/C [4]: 106 % of control
T/C [5]: 124 % of control
T/C [6]: 37 % of control

C[N+](C)(C)c1ncnc2c1ncn2C1CCCO1 (stereo unspecified)
T/C [7]: 85 % of control
T/C [8]: 89 % of control
T/C [9]: 87 % of control
T/C [10]: 92 % of control

CCCCOC(=O)/C=C(\Br)C(=O)OCCCC
T/C [11]: 115 % of control
T/C [12]: 95 % of control and 119 % of control
T/C [13]: 100 % of control and 119 % of control
T/C [14]: 114 % of control

COc1cc(C(=O)N/N=C/c2cccc([N+](=O)[O-])c2)cc(OC)c1OC
T/C (endpoint: median tumor weight change, dose: 125.0 mg/kg/injection, schedule: Q01DX001 (ip), vehicle: saline with Tween-80): 94 % of control
T/C [4]: 60 % of control
T/C [5]: 108 % of control
T/C [6]: 115 % of control
T/C (endpoint: median tumor weight change, dose: 2000.0 mg/kg/injection, schedule: Q01DX001 (ip), vehicle: saline with Tween-80): 119 % of control

O=C(O)C1CC1.[Ag]
T/C (endpoint: median tumor weight (est.), dose: 6.25 mg/kg/injection, schedule: Q07DX005 (ip), vehicle: distilled water + Tween-80): 63 % of control
T/C (endpoint: median tumor weight (est.), dose: 12.5 mg/kg/injection, schedule: Q07DX005 (ip), vehicle: distilled water + Tween-80): 88 % of control

COc1cc(NCc2ccc3nc(N)nc(N)c3c2C)cc(OC)c1OC (tested in a mixture with another compound)
T/C (endpoint: median tumor weight (est.), dose: 32.0 mg/kg/injection, schedule: Q04DX007 (ip), vehicle: water): 87 % of control
T/C (endpoint: median tumor weight (est.), dose: 46.0 mg/kg/injection, schedule: Q07DX005 (ip), vehicle: water): 24 % of control
T/C (endpoint: median tumor weight (est.), dose: 47.4 mg/kg/injection, schedule: Q04DX007 (ip), vehicle: water): 35 % of control
T/C (endpoint: median tumor weight (est.), dose: 70.0 mg/kg/injection, schedule: Q07DX005 (ip), vehicle: water): 27 % of control
T/C (endpoint: median tumor weight (est.), dose: 71.1 mg/kg/injection, schedule: Q04DX007 (ip), vehicle: water): 113 % of control
T/C (endpoint: median tumor weight (est.), dose: 105.0 mg/kg/injection, schedule: Q07DX005 (ip), vehicle: water): 24 % of control
T/C (endpoint: median tumor weight (est.), dose: 106.7 mg/kg/injection, schedule: Q04DX007 (ip), vehicle: water): 42 % of control
T/C (endpoint: median tumor weight (est.), dose: 157.0 mg/kg/injection, schedule: Q07DX005 (ip), vehicle: water): 13 % of control
T/C (endpoint: median tumor weight (est.), dose: 160.0 mg/kg/injection, schedule: Q04DX007 (ip), vehicle: water): 32 % of control

CCCCCCCCCCCCCCCCP(=O)(OCCOCCCCCC)OCCOCCCCCC
T/C (endpoint: median tumor weight (est.), dose: 3.12 mg/kg/injection, schedule: Q07DX005 (ip), vehicle: saline): 118 % of control
T/C (endpoint: median tumor weight (est.), dose: 6.25 mg/kg/injection, schedule: Q07DX005 (ip), vehicle: saline): 156 % of control
T/C [7]: 85 % of control
T/C [8]: 72 % of control
T/C [9]: 94 % of control
T/C [10]: 55 % of control

CC(=O)OCC1(C)NC(=O)c2ccccc2O1 (stereo unspecified)
T/C [11]: 18 % of control
T/C [12]: 40 % of control
T/C (endpoint: median tumor weight (est.), dose: 50.0 mg/kg/injection, schedule: Q07DX005 (ip), vehicle: saline with Tween-80): 18 % of control
T/C [13]: 37 % of control
T/C [14]: 34 % of control
T/C (endpoint: median tumor weight (est.), dose: 400.0 mg/kg/injection, schedule: Q07DX005 (ip), vehicle: saline with Tween-80): 24 % of control

ClCCCN1CCN(CCCl)CC1
T/C (endpoint: median tumor weight change, dose: 10.0 mg/kg/injection, schedule: Q01DX001 (ip), vehicle: saline): 92 % of control and 97 % of control
T/C (endpoint: median tumor weight change, dose: 14.4 mg/kg/injection, schedule: Q01DX001 (ip), vehicle: saline): 88 % of control
T/C (endpoint: median tumor weight change, dose: 20.0 mg/kg/injection, schedule: Q01DX001 (ip), vehicle: saline): 27 % of control and 52 % of control
T/C (endpoint: median tumor weight change, dose: 24.0 mg/kg/injection, schedule: Q01DX001 (ip), vehicle: saline): 15 % of control

COc1cc2cc(c1Cl)N(C)C(=O)CC(OC(=O)C(C)C)C1(C)OC1C(C)C1CC(O)(NC(=O)O1)C(OC)/C=C/C=C(C)C2 (stereo unspecified)
T/C (endpoint: median tumor weight (est.), dose: 9.3 micrograms/kg/injection, schedule: Q07DX005 (ip), vehicle: saline + alcohol): 79 % of control
T/C (endpoint: median tumor weight (est.), dose: 18.7 micrograms/kg/injection, schedule: Q07DX005 (ip), vehicle: saline + alcohol): 103 % of control
T/C (endpoint: median tumor weight (est.), dose: 75.0 micrograms/kg/injection, schedule: Q07DX005 (ip), vehicle: saline + alcohol): 89 % of control
T/C (endpoint: median tumor weight (est.), dose: 150.0 micrograms/kg/injection, schedule: Q07DX005 (ip), vehicle: saline + alcohol): 45 % of control
